Measurements from PubChem BioAssay (NCI).
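Five compound concentrations were applied to cells in 96-well plates for 48 hours; endpoints were derived by simple linear interpolation of the resulting dose-response curve. GI50: concentration for 50% inhibition of growth. At the TGI there is no net growth.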

What was measured:
Assay in all cases: NCI tumour cell line growth inhibition, 48 h
OVCAR-3 ovarian = system: OVCAR-3 ovarian
A549 NSCLC = system: A549 NSCLC
CAKI-1 renal = system: CAKI-1 renal
UACC-257 melanoma = system: UACC-257 melanoma
HCT-116 colon = system: HCT-116 colon
SK-MEL-28 melanoma = system: SK-MEL-28 melanoma
IGROV1 ovarian = system: IGROV1 ovarian
T-47D breast = system: T-47D breast
NCI-H522 lung = system: NCI-H522 lung
SK-MEL-2 melanoma = system: SK-MEL-2 melanoma

| Structure (SMILES) | TGI (OVCAR-3 ovarian) [µM] | TGI (A549 NSCLC) [µM] | TGI (CAKI-1 renal) [µM] | TGI (UACC-257 melanoma) [µM] | TGI (HCT-116 colon) [µM] | TGI (SK-MEL-28 melanoma) [µM] | TGI (IGROV1 ovarian) [µM] | TGI (T-47D breast) [µM] | TGI (NCI-H522 lung) [µM] | TGI (SK-MEL-2 melanoma) [µM] | GI50 (OVCAR-3 ovarian) [µM] | GI50 (A549 NSCLC) [µM] | GI50 (UACC-257 melanoma) [µM] | GI50 (NCI-H522 lung) [µM] | GI50 (SK-MEL-28 melanoma) [µM] | GI50 (IGROV1 ovarian) [µM] | GI50 (SK-MEL-2 melanoma) [µM] | GI50 (T-47D breast) [µM] |
| --- | --- | --- | --- | --- | --- | --- | --- | --- | --- | --- | --- | --- | --- | --- | --- | --- | --- | --- |
| COc1cc(-c2c3c(cc4c2OCO4)[C@@H](Nc2ccc4c(c2)Cc2cc(N[C@@H]5c6cc7c(cc6C(c6cc(OC)c(O)c(OC)c6)[C@H]6C(=O)OC[C@H]56)OCO7)ccc2-4)[C@H]2COC(=O)[C@@H]2C3)cc(OC)c1O (some centres not stated) | > 100 | > 100 | 88.9 | > 100 | 57 | 70 | 21.3 | > 100 |  |  |  |  |  |  |  |  |  |  |
| CCOC(=O)/C(=C/c1ccco1)P(=O)(OCC)OCC |  | > 100 | > 100 | > 100 | > 100 | > 100 | > 100 |  | > 100 | > 100 |  |  |  |  |  |  |  |  |
| CCOC1NC(=O)c2ccccc21 (configuration not stated) | > 100 | > 100 |  | > 100 | > 100 | > 100 | > 100 | > 100 | > 100 |  |  |  |  |  |  |  |  |  |
| CN(C)c1nc(=NCc2ccccn2)ss1 | > 10 | > 10 | > 10 | > 10 | > 10 | > 10 | > 10 | > 10 |  |  |  |  |  |  |  |  |  |  |
| FC(F)=C(c1ccc(-c2ccc(Cl)cc2)cc1)C(F)(F)F |  | 37.4 | 46.3 | 37.5 | 32 | 28.4 | 33.9 | 76.8 | 36.6 | 42.5 |  |  |  |  |  |  |  |  |
| C=C1CC2C(=O)N(c3ccccc3)C(=O)C2CC1n1[nH]c(=O)n(Cc2ccccc2)c1=O (configuration not stated) | > 100 | > 100 | > 100 | > 100 | > 100 | > 100 | > 100 |  | > 100 | > 100 |  |  |  |  |  |  |  |  |
| CC1=NC(C)(C)N(O)C1(C)C | > 100 | > 100 |  |  | > 100 | > 100 | > 100 | > 100 | > 100 | > 100 |  |  |  |  |  |  |  |  |
| O=C(c1ccccc1)[C@H]1Nc2cnccc2C2c3ccccc3CC21 (some centres not stated) | 29.7 | 74.5 | > 73.6 | 26.1 | > 38.4 | 18.9 | > 58.6 |  | 8.56 | 29.9 |  |  |  |  |  |  |  |  |
| CN1c2ccccc2C(=O)NC12CCN(CC1COc3ccccc3O1)CC2 (configuration not stated) |  | > 100 |  | > 100 | > 100 | > 100 | > 100 | 98.8 |  |  |  |  |  |  |  |  |  |  |
| COC(=O)C1=C(C(=O)OC)C2(C)CCC(=O)C1O2 (configuration not stated) | > 10 | > 10 | > 10 | > 10 | > 10 | > 10 | > 10 | > 10 |  | > 10 |  |  |  |  |  |  |  |  |
| COc1cc(CCCOC2OC(COC3OCC(O)C(O)C3O)C(O)C(O)C2O)cc2cc(-c3ccc4c(c3)OCO4)oc12 (configuration not stated) | > 175 | > 175 | > 175 | > 175 | > 175 | > 175 | > 175 |  | > 175 | > 175 |  |  |  |  |  |  |  |  |
| NC(=S)N=Nc1c(O)cc(Nc2ccc(Cl)cc2Cl)c2ccccc12 | 54.4 | > 100 | 38.6 | > 100 | > 100 | > 100 | 88 | 93.6 |  | > 100 |  |  |  |  |  |  |  |  |
| O=c1cc(-c2ccccc2F)[nH]c2cc3c(cc12)OCO3 | 0.779 | > 100 |  | > 77.5 | > 58.5 | > 100 | > 100 | > 100 | 0.238 | > 100 |  |  |  |  |  |  |  |  |
| C/C(=N\Nc1nc2ccccc2s1)c1cccnn1 | > 100 | > 100 | > 100 | > 100 | 25.5 | > 100 | 15.5 |  | 17.7 | 36.8 |  |  |  |  |  |  |  |  |
| CC1=CCC[C@H]2[C@](C)(CC3=CC(=O)C4SCCSC4C3=O)[C@@H](C)CC[C@]12C (some centres not stated) | 48.4 | 38.3 | 99.2 | 64 | 31 | 38.4 | 84.6 | > 100 |  | 23.2 |  |  |  |  |  |  |  |  |
| CCN(CC)C(=S)SS(=O)(=O)c1ccc(C)cc1 | > 100 |  | 37.3 | 46.3 |  | 39.4 |  | > 100 |  | > 100 |  |  |  |  |  |  |  |  |
| O=C(CN=C(CN(c1ccccc1)c1ccccc1)Oc1c(Cl)cc(Cl)cc1Cl)n1cnc2ccccc21 | > 100 | > 100 |  | > 100 | > 100 | > 100 | > 100 | > 100 | > 100 |  |  |  |  |  |  |  |  |  |
| O=c1oc2ccccc2c2nc3ccccc3cc12 |  | > 100 | > 100 | > 100 | > 100 | > 100 | > 100 | > 100 | > 100 | > 100 |  |  |  |  |  |  |  |  |

| Structure (SMILES) | TGI (OVCAR-3 ovarian) [µM] | TGI (A549 NSCLC) [µM] | TGI (CAKI-1 renal) [µM] | TGI (UACC-257 melanoma) [µM] | TGI (HCT-116 colon) [µM] | TGI (SK-MEL-28 melanoma) [µM] | TGI (IGROV1 ovarian) [µM] | TGI (T-47D breast) [µM] | TGI (NCI-H522 lung) [µM] | TGI (SK-MEL-2 melanoma) [µM] | GI50 (OVCAR-3 ovarian) [µM] | GI50 (A549 NSCLC) [µM] | GI50 (UACC-257 melanoma) [µM] | GI50 (NCI-H522 lung) [µM] | GI50 (SK-MEL-28 melanoma) [µM] | GI50 (IGROV1 ovarian) [µM] | GI50 (SK-MEL-2 melanoma) [µM] | GI50 (T-47D breast) [µM] |
| --- | --- | --- | --- | --- | --- | --- | --- | --- | --- | --- | --- | --- | --- | --- | --- | --- | --- | --- |
| C[C@@H]1C(=O)CC2(O)[C@@]13C[C@@H](OC(=O)[C@@H]3O)[C@@H](C)[C@@]21COC1=O (some centres not stated) | > 100 | > 100 |  | > 100 | > 100 | > 100 | > 100 | > 100 | > 100 | > 100 |  |  |  |  |  |  |  |  |
| Cc1cc(C)nc(NS(=O)(=O)c2ccc(Nc3c4ccccc4nc4c(C(=O)N5CCN(CCOS(C)(=O)=O)CC5)ccc(Cl)c34)cc2)n1 | > 100 | > 100 | > 100 | > 100 | > 100 | > 100 | > 100 |  |  | > 100 |  |  |  |  |  |  |  |  |
| NC(=O)NC(=NCc1ccccc1)NCc1ccccc1 | > 100 | > 100 | > 100 | > 100 | > 100 | > 100 | > 100 |  | > 100 | > 100 |  |  |  |  |  |  |  |  |
| COC(=O)C(CCCCNC(=O)CNC(=O)OCc1ccccc1)NC(=O)C(CCCCNC(=O)CNC(=O)OCc1ccccc1)NC(=O)OCc1ccccc1 (configuration not stated) | > 100 | > 100 | > 100 | > 100 | > 100 | > 100 |  | > 100 |  | 54.2 |  |  |  |  |  |  |  |  |
| CCOP(=O)(OCC)c1cc(-c2ccccc2)ccc1N | > 100 | > 100 | > 100 | > 100 | > 100 | > 100 | > 100 |  | > 100 | > 100 |  |  |  |  |  |  |  |  |
| COC(=O)C(=O)C(C(=O)C(=O)Nc1cc([N+](=O)[O-])ccc1C#N)c1nc2ccccc2[nH]c1=O (configuration not stated) | > 100 | > 100 | > 100 | > 100 | > 100 | > 100 | > 100 |  | > 100 |  |  |  |  |  |  |  |  |  |
| CCC1C(=O)OCc2c1cc1n(c2=O)CCC12OCCO2 (configuration not stated) |  | > 100 | > 100 | > 100 | > 100 | > 100 | > 100 |  | > 100 | > 100 |  |  |  |  |  |  |  |  |
| CC1=C(C(=O)NNC(=O)CC#N)CC(C(=O)NNC(=O)CC#N)=C(C)N1 | > 100 | > 100 | > 100 | > 100 | > 100 | > 100 | > 100 | > 100 |  | > 100 |  |  |  |  |  |  |  |  |
| COc1cc(OC)c(C2c3cc4c(cc3OC(N3CCOCC3)C2C)OCO4)c(OC)c1 (configuration not stated) | > 100 | > 100 |  | > 100 | > 100 | > 100 | > 100 | > 100 | > 100 | > 100 |  |  |  |  |  |  |  |  |
| CCCC[C@@H]1CCN2C[C@@H](O)[C@@H](O)[C@H]2[C@@H]1O | > 100 | > 100 | > 100 | > 100 | > 100 | > 100 | > 100 |  | > 100 | > 100 |  |  |  |  |  |  |  |  |
| CCOC(=O)C(NC(=O)c1ccc(N=NN(C)C)cc1)C(C)C (configuration not stated) | > 100 | > 100 | > 100 | > 100 | > 100 | > 100 | > 100 |  | > 100 | > 100 |  |  |  |  |  |  |  |  |
| CC1(C)OC(CCO)CN1C(=O)OCc1ccccc1 (configuration not stated) | > 100 | > 100 | > 100 | > 100 | > 100 | > 100 | > 100 |  | > 100 | > 100 |  |  |  |  |  |  |  |  |
| O=CN(O)CC(=O)O | > 100 | > 100 |  | > 100 | > 100 | > 100 | > 100 | > 100 |  | > 100 |  |  |  |  |  |  |  |  |
| NNC(=O)c1cccc2c1Oc1ccccc1S2 |  |  | > 100 | > 100 | > 100 | > 100 | > 100 | > 100 |  | > 100 |  |  |  |  |  |  |  |  |
| COc1cc2c(cc1OCCCOc1cc3c(cc1OC)C(=O)N1CCC[C@H]1CN3)N=C[C@@H]1CCCN1C2=O | 0.342 | > 28.1 | 1.88 | 0.516 |  | 0.749 | 0.451 | > 100 |  | 0.365 |  |  |  |  |  |  |  |  |
| Nc1nc(Nc2ccc(OCc3cccc(F)c3)cc2)c2c(n1)[nH]c1ccc(O)cc12 | 3.46 | 17.8 |  | 22.2 |  | 5.59 | 14.7 | 4.5 | 4.67 | 7.71 | 1.89 | 4.13 | 4.81 | 1.99 | 2.26 | 3.75 | 2.61 | 1.79 |
| Cc1ccc(-n2cc(-c3ccc(Cl)cc3)c3c2N=CN2NC(c4ccco4)=NC32)cc1 (configuration not stated) | 73.8 | > 100 | 27.3 | > 100 | 31.8 | > 100 | 72.3 |  | 90 | 27.5 |  |  |  |  |  |  |  |  |
